Data reported in US12435059B2, “AMP-activated protein kinase inhibitors and methods of making and using the same” (The Regents of the University of Colorado, priority 2019, dated 2025).
Like-named read-outs stand apart in the source and are kept apart here.

How the values were obtained:
Test in all cases: biochemical
Assay type in all cases: binding
468 kinases [1] = target: 468 kinases (Homo sapiens, UniProt O14733); conditions: MKK7; read-out: % Inhibition @ 100 nM
468 kinases [2] = target: 468 kinases (Homo sapiens, UniProt O15075); conditions: DCAMKL1; read-out: % Inhibition @ 100 nM
468 kinases [3] = target: 468 kinases (Homo sapiens, UniProt O95835); conditions: LATS1; read-out: % Inhibition @ 100 nM
468 kinases [4] = target: 468 kinases (Homo sapiens, UniProt P00533); conditions: EGFR; read-out: % Inhibition @ 100 nM
468 kinases [5] = target: 468 kinases (Homo sapiens, UniProt P04626); conditions: ERBB2; read-out: % Inhibition @ 100 nM
468 kinases (Homo sapiens, UniProt P04626), sequence (P04626 23-1255 limits assumed): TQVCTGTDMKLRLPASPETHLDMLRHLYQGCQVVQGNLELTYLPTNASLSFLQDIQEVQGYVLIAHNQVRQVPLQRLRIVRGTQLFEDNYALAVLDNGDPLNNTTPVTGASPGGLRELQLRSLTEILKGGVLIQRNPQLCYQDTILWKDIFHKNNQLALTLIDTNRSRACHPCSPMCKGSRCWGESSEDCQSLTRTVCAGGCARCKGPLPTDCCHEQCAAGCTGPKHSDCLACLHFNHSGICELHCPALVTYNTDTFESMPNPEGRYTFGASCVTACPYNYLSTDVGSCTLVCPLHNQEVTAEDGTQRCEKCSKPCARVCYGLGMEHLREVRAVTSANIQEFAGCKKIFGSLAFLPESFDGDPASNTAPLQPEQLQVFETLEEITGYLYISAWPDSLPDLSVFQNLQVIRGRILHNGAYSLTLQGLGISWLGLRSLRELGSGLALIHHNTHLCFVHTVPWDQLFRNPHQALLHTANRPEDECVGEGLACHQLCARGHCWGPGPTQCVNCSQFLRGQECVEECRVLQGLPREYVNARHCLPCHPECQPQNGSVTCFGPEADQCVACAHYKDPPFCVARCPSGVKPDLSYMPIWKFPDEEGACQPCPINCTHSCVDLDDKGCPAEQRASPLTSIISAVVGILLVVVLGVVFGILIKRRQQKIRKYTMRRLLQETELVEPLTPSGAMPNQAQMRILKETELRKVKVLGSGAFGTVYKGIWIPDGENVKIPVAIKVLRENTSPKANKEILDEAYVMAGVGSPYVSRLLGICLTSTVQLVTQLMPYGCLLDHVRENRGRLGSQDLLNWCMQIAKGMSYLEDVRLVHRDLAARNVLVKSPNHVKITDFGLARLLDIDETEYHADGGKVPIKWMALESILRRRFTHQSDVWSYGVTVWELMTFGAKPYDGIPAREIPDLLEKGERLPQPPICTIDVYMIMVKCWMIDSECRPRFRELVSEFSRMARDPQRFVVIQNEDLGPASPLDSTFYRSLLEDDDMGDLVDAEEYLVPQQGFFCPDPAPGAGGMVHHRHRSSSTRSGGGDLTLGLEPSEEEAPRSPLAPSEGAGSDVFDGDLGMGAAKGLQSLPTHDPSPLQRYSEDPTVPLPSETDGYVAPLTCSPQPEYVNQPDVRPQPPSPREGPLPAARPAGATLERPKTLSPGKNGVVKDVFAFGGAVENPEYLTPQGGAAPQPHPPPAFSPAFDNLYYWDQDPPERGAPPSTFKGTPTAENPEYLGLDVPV

468 kinases [6] = target: 468 kinases (Homo sapiens, UniProt P06213); conditions: INSR; read-out: % Inhibition @ 100 nM
468 kinases [7] = target: 468 kinases (Homo sapiens, UniProt P08581, M1250T); conditions: MET(M1250T); read-out: % Inhibition @ 100 nM
468 kinases [8] = target: 468 kinases (Homo sapiens, UniProt P10721, V559D/V654A); conditions: KIT(V559D,V654A); read-out: % Inhibition @ 100 nM
468 kinases [9] = target: 468 kinases (Homo sapiens, UniProt P15056); conditions: BRAF; read-out: % Inhibition @ 100 nM
468 kinases [10] = target: 468 kinases (Homo sapiens, UniProt P15056, V600E); conditions: BRAF(V600E); read-out: % Inhibition @ 100 nM
468 kinases (Homo sapiens, UniProt P15056, V600E), sequence (P15056 2-766 V600E limits assumed): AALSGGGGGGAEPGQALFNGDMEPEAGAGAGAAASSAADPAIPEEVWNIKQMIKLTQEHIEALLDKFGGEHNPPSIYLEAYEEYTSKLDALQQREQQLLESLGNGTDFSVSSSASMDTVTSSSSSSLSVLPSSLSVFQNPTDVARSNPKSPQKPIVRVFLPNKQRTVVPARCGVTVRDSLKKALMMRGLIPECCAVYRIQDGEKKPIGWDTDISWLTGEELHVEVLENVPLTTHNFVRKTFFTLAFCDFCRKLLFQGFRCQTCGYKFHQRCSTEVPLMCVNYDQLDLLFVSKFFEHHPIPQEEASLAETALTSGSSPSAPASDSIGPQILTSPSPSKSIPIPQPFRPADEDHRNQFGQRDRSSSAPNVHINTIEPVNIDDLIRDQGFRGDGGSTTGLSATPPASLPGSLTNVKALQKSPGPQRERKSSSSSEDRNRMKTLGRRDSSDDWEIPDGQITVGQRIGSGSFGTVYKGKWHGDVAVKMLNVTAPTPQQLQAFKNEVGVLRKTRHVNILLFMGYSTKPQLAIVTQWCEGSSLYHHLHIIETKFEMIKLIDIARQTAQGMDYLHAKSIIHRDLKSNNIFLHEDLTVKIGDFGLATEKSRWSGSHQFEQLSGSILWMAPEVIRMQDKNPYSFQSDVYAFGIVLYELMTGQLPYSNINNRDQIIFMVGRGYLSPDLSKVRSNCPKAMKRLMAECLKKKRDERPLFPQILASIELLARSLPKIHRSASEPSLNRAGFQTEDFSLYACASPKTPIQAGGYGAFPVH

468 kinases [11] = target: 468 kinases (Homo sapiens, UniProt P21127); conditions: CDC2L1; read-out: % Inhibition @ 100 nM
468 kinases [12] = target: 468 kinases (Homo sapiens, UniProt P21860); conditions: ERBB3; read-out: % Inhibition @ 100 nM
468 kinases [13] = target: 468 kinases (Homo sapiens, UniProt P31751); conditions: AKT2; read-out: % Inhibition @ 100 nM
468 kinases [14] = target: 468 kinases (Homo sapiens, UniProt P36888); conditions: read-out: % Inhibition @ 100 nM
468 kinases (Homo sapiens, UniProt P36888), sequence (P36888 27-993 limits assumed): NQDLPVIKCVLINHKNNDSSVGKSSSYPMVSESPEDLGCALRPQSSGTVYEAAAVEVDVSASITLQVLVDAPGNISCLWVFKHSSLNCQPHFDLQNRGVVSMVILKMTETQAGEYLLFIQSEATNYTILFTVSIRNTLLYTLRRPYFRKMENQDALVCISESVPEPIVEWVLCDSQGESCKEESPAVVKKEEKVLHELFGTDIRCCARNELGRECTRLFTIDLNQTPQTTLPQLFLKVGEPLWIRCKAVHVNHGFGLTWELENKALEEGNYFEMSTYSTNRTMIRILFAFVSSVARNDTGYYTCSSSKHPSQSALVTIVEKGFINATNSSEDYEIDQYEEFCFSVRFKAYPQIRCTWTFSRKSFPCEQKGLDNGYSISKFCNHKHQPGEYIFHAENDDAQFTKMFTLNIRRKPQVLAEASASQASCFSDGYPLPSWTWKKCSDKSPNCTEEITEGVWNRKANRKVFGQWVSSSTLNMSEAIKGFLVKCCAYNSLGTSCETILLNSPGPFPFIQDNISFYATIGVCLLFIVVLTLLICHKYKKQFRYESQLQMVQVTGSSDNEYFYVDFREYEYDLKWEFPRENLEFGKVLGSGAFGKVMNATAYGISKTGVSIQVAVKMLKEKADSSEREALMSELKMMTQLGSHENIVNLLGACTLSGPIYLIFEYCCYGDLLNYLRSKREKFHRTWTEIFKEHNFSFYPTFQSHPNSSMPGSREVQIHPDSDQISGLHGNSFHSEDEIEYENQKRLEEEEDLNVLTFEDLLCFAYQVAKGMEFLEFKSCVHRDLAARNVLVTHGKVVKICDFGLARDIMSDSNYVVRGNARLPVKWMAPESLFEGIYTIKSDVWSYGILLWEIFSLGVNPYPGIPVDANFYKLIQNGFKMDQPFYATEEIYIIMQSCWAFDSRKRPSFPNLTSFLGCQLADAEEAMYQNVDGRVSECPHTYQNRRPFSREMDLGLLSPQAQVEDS

468 kinases [15] = target: 468 kinases (Homo sapiens, UniProt P45983); conditions: JNK1; read-out: % Inhibition @ 100 nM
468 kinases [16] = target: 468 kinases (Homo sapiens, UniProt P46734); conditions: MEK3; read-out: % Inhibition @ 100 nM
468 kinases [17] = target: 468 kinases (Homo sapiens, UniProt P48730); conditions: CSNK1D; read-out: % Inhibition @ 100 nM
468 kinases [18] = target: 468 kinases (Homo sapiens, UniProt P51817); conditions: PRKX; read-out: % Inhibition @ 100 nM
468 kinases [19] = target: 468 kinases (Homo sapiens, UniProt P54762); conditions: EPHB1; read-out: % Inhibition @ 100 nM
468 kinases [20] = target: 468 kinases (Homo sapiens, UniProt Q13153); conditions: PAK1; read-out: % Inhibition @ 100 nM
468 kinases (Homo sapiens, UniProt Q13153), sequence (Q13153 2-545 limits assumed): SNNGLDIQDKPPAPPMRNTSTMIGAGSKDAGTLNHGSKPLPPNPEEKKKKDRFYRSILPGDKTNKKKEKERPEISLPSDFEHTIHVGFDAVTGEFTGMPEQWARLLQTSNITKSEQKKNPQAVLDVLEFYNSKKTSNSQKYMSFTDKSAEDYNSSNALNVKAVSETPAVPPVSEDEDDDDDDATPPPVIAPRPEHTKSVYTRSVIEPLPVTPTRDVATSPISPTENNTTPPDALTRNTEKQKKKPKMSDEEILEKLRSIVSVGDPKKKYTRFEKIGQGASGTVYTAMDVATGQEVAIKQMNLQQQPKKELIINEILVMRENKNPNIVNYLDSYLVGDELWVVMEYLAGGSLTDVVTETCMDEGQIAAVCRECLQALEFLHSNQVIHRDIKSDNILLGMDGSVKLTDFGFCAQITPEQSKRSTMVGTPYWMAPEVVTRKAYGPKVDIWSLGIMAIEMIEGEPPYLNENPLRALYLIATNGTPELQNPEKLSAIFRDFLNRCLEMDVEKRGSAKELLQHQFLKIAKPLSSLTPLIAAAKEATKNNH

468 kinases [21] = target: 468 kinases (Homo sapiens, UniProt Q13546); conditions: RIPK1; read-out: % Inhibition @ 100 nM
468 kinases [22] = target: 468 kinases (Homo sapiens, UniProt Q14004); conditions: read-out: % Inhibition @ 100 nM, CDC2L5
468 kinases [23] = target: 468 kinases (Homo sapiens, UniProt Q14289); conditions: PYK2; read-out: % Inhibition @ 100 nM
468 kinases [24] = target: 468 kinases (Homo sapiens, UniProt Q15139); conditions: PRKD1; read-out: % Inhibition @ 100 nM
468 kinases [25] = target: 468 kinases (Homo sapiens, UniProt Q86V86); conditions: PIM3; read-out: % Inhibition @ 100 nM
468 kinases [26] = target: 468 kinases (Homo sapiens, UniProt Q8TBX8); conditions: PIP5K2C; read-out: % Inhibition @ 100 nM
468 kinases [27] = target: 468 kinases (Homo sapiens, UniProt Q92772); conditions: CDKL2; read-out: % Inhibition @ 100 nM
468 kinases [28] = target: 468 kinases (Homo sapiens, UniProt Q92918); conditions: HPK1; read-out: % Inhibition @ 100 nM
468 kinases [29] = target: 468 kinases (Homo sapiens, UniProt Q9H0K1); conditions: SIK2; read-out: % Inhibition @ 100 nM
468 kinases [30] = target: 468 kinases (Homo sapiens, UniProt Q9H2G2); conditions: SLK; read-out: % Inhibition @ 100 nM
468 kinases [31] = target: 468 kinases (Homo sapiens, UniProt Q9HBY8); conditions: SGK2; read-out: % Inhibition @ 100 nM
468 kinases [32] = target: 468 kinases (Homo sapiens, UniProt Q9UIK4); conditions: DAPK2; read-out: % Inhibition @ 100 nM
468 kinases [33] = target: 468 kinases (Homo sapiens, UniProt Q9UM73, L1196M); conditions: ALK(L1196M); read-out: % Inhibition @ 100 nM
468 kinases (Homo sapiens, UniProt Q9UM73, L1196M), sequence (Q9UM73 19-1620 L1196M limits assumed): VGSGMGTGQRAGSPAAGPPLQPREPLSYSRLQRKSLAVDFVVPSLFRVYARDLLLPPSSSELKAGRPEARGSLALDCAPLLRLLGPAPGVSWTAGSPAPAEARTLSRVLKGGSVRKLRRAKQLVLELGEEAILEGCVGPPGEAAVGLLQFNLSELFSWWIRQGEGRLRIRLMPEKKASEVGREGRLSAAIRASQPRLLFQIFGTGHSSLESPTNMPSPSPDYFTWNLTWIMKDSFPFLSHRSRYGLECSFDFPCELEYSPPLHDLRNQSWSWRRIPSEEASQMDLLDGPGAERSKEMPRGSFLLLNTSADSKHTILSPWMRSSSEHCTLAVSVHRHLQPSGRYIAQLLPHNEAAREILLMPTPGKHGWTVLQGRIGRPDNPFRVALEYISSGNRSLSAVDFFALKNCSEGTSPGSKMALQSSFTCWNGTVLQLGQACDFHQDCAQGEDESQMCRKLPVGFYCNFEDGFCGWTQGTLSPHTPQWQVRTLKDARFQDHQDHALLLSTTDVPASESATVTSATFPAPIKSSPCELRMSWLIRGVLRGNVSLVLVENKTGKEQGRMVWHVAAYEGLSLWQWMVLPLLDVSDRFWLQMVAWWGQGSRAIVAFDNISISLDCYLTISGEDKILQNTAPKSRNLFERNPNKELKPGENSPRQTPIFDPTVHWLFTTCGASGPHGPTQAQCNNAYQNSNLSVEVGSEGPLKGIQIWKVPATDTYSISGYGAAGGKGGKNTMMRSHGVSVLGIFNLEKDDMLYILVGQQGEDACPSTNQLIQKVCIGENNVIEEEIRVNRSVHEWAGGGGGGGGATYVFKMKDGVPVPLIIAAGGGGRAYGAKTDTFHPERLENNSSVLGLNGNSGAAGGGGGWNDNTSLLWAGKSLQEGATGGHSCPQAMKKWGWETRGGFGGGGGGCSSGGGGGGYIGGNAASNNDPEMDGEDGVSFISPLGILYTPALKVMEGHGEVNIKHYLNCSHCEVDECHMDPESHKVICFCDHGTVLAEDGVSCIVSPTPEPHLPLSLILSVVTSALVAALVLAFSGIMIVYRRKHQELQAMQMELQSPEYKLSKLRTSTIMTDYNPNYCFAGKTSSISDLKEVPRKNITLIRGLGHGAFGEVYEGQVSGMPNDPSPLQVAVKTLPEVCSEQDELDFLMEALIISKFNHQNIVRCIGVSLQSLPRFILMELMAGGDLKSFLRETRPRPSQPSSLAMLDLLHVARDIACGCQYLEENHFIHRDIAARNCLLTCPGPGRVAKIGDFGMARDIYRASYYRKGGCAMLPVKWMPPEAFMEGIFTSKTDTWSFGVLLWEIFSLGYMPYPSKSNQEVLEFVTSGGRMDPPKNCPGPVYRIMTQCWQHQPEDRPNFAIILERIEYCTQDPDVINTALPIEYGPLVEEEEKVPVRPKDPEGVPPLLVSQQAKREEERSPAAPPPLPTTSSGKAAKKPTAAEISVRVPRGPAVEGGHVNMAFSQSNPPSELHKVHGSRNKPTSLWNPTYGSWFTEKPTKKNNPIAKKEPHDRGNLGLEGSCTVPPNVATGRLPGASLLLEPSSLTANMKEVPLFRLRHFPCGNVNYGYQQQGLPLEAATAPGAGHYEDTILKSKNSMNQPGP

Row | SMILES | inhibition at 0.1 µM (468 kinases [1]) [%] | inhibition at 0.1 µM (468 kinases [2]) [%] | inhibition at 0.1 µM (468 kinases [3]) [%] | inhibition at 0.1 µM (468 kinases [4]) [%] | inhibition at 0.1 µM (468 kinases [5]) [%] | inhibition at 0.1 µM (468 kinases [6]) [%] | inhibition at 0.1 µM (468 kinases [7]) [%] | inhibition at 0.1 µM (468 kinases [8]) [%] | inhibition at 0.1 µM (468 kinases [9]) [%] | inhibition at 0.1 µM (468 kinases [10]) [%] | inhibition at 0.1 µM (468 kinases [11]) [%] | inhibition at 0.1 µM (468 kinases [12]) [%] | inhibition at 0.1 µM (468 kinases [13]) [%] | inhibition at 0.1 µM (468 kinases [14]; FLT3 -autoinhibited) [%] | inhibition at 0.1 µM (468 kinases [14]; FLT3) [%] | inhibition at 0.1 µM (468 kinases [15]) [%] | inhibition at 0.1 µM (468 kinases [16]) [%] | inhibition at 0.1 µM (468 kinases [17]) [%] | inhibition at 0.1 µM (468 kinases [18]) [%] | inhibition at 0.1 µM (468 kinases [19]) [%] | other results
1 | CCN(CC)CCNC(=O)c1c(C)[nH]c(/C=C2\C(=O)Nc3ccc(CCC(N)=O)cc32)c1C [Compound No. 16, (Z)-5-((5-(3-Amino-3-oxopropyl)-2-oxoindolin-3-ylidene)methyl)-N-(2-(diethylamino)ethyl)-2,4-dimethyl-1H-pyrrole-3-carboxamide] | 17 | 32 | 17 | 64 | 0 | 25 | 6 | 0 | 11 | 0 | 7 | 11 | 0 | 61 | 62 | 7 | 35 | 9 | 9 | 8 | inhibition at 0.1 µM (468 kinases [20]): 0%; inhibition at 0.1 µM (468 kinases [21]): 19%; inhibition at 0.1 µM (468 kinases [22]): 50%; inhibition at 0.1 µM (468 kinases [23]): 7%; inhibition at 0.1 µM (468 kinases [24]): 0%; inhibition at 0.1 µM (468 kinases [25]): 0%; inhibition at 0.1 µM (468 kinases [26]): 1%; inhibition at 0.1 µM (468 kinases [27]): 5%; inhibition at 0.1 µM (468 kinases [28]): 95.2%; inhibition at 0.1 µM (468 kinases [29]): 15%; inhibition at 0.1 µM (468 kinases [30]): 37%; inhibition at 0.1 µM (468 kinases [31]): 14%; inhibition at 0.1 µM (468 kinases [32]): 7%; inhibition at 0.1 µM (468 kinases [33]): 31%
2 | CCN(CC)CCNC(=O)c1c(C)[nH]c(/C=C2\C(=O)Nc3ccc(CCO)cc32)c1C [Compound No. 10, (Z)—N-(2-(Diethylamino)ethyl)-5-((5-(2-hydroxyethyl)-2-oxoindolin-3-ylidene)methyl)-2,4-dimethyl-1H-pyrrole-3-carboxamide] | 0 | 32 | 43 | 0 | 0 | 0 | 0 | 79 | 2 | 3 | 0 | 14 | 4 | 81 | 96.7 | 9 | 9 | 29 | 0 | 0 | inhibition at 0.1 µM (468 kinases [20]): 0%; inhibition at 0.1 µM (468 kinases [21]): 1%; inhibition at 0.1 µM (468 kinases [22]): 27%; inhibition at 0.1 µM (468 kinases [23]): 31%; inhibition at 0.1 µM (468 kinases [24]): 0%; inhibition at 0.1 µM (468 kinases [25]): 8%; inhibition at 0.1 µM (468 kinases [26]): 0%; inhibition at 0.1 µM (468 kinases [27]): 10%; inhibition at 0.1 µM (468 kinases [28]): 96.6%; inhibition at 0.1 µM (468 kinases [29]): 0%; inhibition at 0.1 µM (468 kinases [30]): 59%; inhibition at 0.1 µM (468 kinases [31]): 0%; inhibition at 0.1 µM (468 kinases [32]): 0%; inhibition at 0.1 µM (468 kinases [33]): 52%
